One series addresses T1, S. aureus ClpP (Sa-ClpP) (Staphylococcus aureus, UniProt Q2G036).
T1 construct: made in house; host or cells: E. coli BL21 (DE3)
Briefly: Casein-BODIPY digestion assay (ClpP activation). The class given is biochemical.

A short description of series [1]: Microsomal metabolic stability. The class given is in vitro ADME, human. Here is the method:
Compounds were initially prepared by dissolving them into DMSO at a final concentration of 10 mM. NADPH regenerating solutions A and B and mouse liver microsomes (CD-1) were obtained from BD Gentest (Woburn, Mass.). Ninety-six well deep well plates were obtained from MidWest Scientific Inc (Valley Park, Mo.).
Sample preparation for microsomal stability was modified from methods of Di, L., et al., Int J Pharm. 2005 Jun. 13; 297(1-2):110-9. A set of incubation times of 0, 15, 30, 60, 120, and 240 minutes were used. Mouse liver microsomal solutions were prepared by adding 58 μL of concentrated human or mouse liver microsomes (20 mg/mL protein concentration) to 1.756 mL of 0.1 M potassium phosphate buffer (pH 7.4) and 5 μL of 0.5 M EDTA to make a 0.6381 mg/mL (protein) microsomal solution. NADPH regenerating agent contained 113 μL of NADPH A, 23 μL of NADPH B, and 315 μL of 0.1 M potassium phosphate buffer (pH 7.4). The diluted test compound solutions (2 μL) were each added directly to a 1.79 mL of liver microsomal solution. This solution was mixed and 90 μL was transferred to 6 time points plates (each in triplicate wells). For the time 0 plate, 225 μL of cold acetonitrile with internal standard ([…] warfarin) was added to each well, followed by addition of NADPH regenerating agent (22.5 μL) and no incubation. For other five time points' plate, NADPH regenerating agent (22.5 μL) was added to each well to initiate the reaction. The plates were incubated at 37° C. for the required time, followed by quenching of the reaction by adding 225 μL of cold acetonitrile with internal standard (4 μg/ml warfarin). All of the plates were sealed and mixed well at 600 rpm for 10 minutes followed by centrifugation at 4000 rpm for 20 minutes. The supernatants (120 μL) were transferred to analytical plates for analysis by LCMS. LCMS conditions were described in the materials and instrumentation section above. The metabolic stability is evaluated via the half-life from least-squares fit of the multiple time points based on first-order kinetics.

[2] abbreviates: microsomal metabolic stability half-life, human liver microsomes.

Numbered stars: 1 amine (or outer) side, 2 acyl side, 3 side chain; on linkers, the order of the positions; unused ones are H or OH. Bridge positions count the residues as written; N and C are the ends. Square brackets hold non-standard residues; d marks the D form. Peptide text beside a SMILES is read from it. * marks the point of attachment. ξ: configuration not given here. Piperazine(2S-CO,4-Me) = CN1CCN[C@H](C(=O)O)C1; Phe(3,5-Me2) = Cc1cc(C)cc(C[C@H](N)C(=O)O)c1; Phe(3-Me) = Cc1cccc(C[C@H](N)C(=O)O)c1; NH(4-Cl-2-F-phenyl) = Fc1cc(Cl)ccc1N*; Pro(4R-Me) = C[C@H]1CN[C@H](C(=O)O)C1; Hyp = O=C(O)[C@@H]1C[C@@H](O)CN1; NH(4-Me-phenyl) = Cc1ccc(N*)cc1; ξNMeThr = CNC(C(=O)O)[C@@H](C)O; aThr = C[C@H](O)[C@H](N)C(=O)O; Pip = O=C(O)[C@@H]1CCCCN1; CO = O=C([*:1])[*:2]

T1 sequence (Q2G036 whole entry): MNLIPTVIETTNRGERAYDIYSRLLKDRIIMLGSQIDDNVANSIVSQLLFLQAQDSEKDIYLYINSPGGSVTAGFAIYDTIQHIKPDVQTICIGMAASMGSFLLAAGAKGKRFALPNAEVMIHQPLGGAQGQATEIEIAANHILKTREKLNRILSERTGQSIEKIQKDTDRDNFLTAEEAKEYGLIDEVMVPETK

The EC50 is the midpoint of the concentration-response curve. Lower therefore signals a more potent agent. In the case of `Cc1ccc(NC(=O)N[C@@H](Cc2cccc(C)c2)C(=O)N[C@@H]2C(=O)N3CCC[C@H]3C(=O)N3CCCC[C@H]3C(=O)N[C@@H](C)C(=O)N3C[C@H](C)C[C@H]3C(=O)O[C@H]2C)cc1` [Compound 1, (S)-3-(M-TOLYL)-2-(3-(P-TOLYL)UREIDO)-N-((2R,6S,8AS,14AS,20S,21S,23AS)-2,6,21-TRIMETHYL-5,8,14,19,23-PENTAOXOOCTADECAHYDRO-1H,5H,14H,19H-PYRIDO[2,1-I]DIPYRROLO[2,1-C:2′,1′-L][1]OXA[4,7,10,13]TETRAAZACYCLOHEXADECIN-20-YL)PROPANAMIDE] ({NH(4-Me-phenyl)-CO}-[Phe(3-Me)][aThr]P[Pip]A[Pro(4R-Me)]; ester 2-C), the 50% effective concentration (EC50) on S. aureus ClpP (Sa-ClpP) came out at 430 ± 20 nM. The “Human” value in series [1] (setting [2]) stood at 11.45 h.
The like results for `Cc1ccc(NC(=O)N[C@@H](Cc2cc(C)cc(C)c2)C(=O)N[C@@H]2C(=O)N3CCC[C@H]3C(=O)N3CCCC[C@H]3C(=O)N[C@@H](C)C(=O)N3C[C@H](C)C[C@H]3C(=O)O[C@H]2C)cc1` [Compound 2, (S)-3-(3,5-DIMETHYLPHENYL)-2-(3-(P-TOLYL)UREIDO)-N-((2R,6S,8AS,14AS,20S,21S,23AS)-2,6,21-TRIMETHYL-5,8,14,19,23-PENTAOXOOCTADECAHYDRO-1H,5H,14H,19H-PYRIDO[2,1-I]DIPYRROLO[2,1-C:2′,1′-L][1]OXA[4,7,10,13]TETRAAZACYCLOHEXADECIN-20-YL)PROPANAMIDE] ({NH(4-Me-phenyl)-CO}-[Phe(3,5-Me2)][aThr]P[Pip]A[Pro(4R-Me)]; ester 2-C) were, in that order, 870 ± 30 nM and 0.62 h.
Compound `Cc1cccc(C[C@H](NC(=O)Nc2ccc(Cl)cc2F)C(=O)N[C@@H]2C(=O)N3CCC[C@H]3C(=O)N3CCCC[C@H]3C(=O)N[C@@H](C)C(=O)N3C[C@H](C)C[C@H]3C(=O)O[C@H]2C)c1` [Compound 3, (S)-2-(3-(4-CHLORO-2-FLUOROPHENYL)UREIDO)-3-(M-TOLYL)-N-((2R,6S,8AS,14AS,20S,21S,23AS)-2,6,21-TRIMETHYL-5,8,14,19,23-PENTAOXOOCTADECAHYDRO-1H,5H,14H,19H-PYRIDO[2,1-I]DIPYRROLO[2,1-C:2′,1′-L][1]OXA[4,7,10,13]TETRAAZACYCLOHEXADECIN-20-YL)PROPANAMIDE] ({NH(4-Cl-2-F-phenyl)-CO}-[Phe(3-Me)][aThr]P[Pip]A[Pro(4R-Me)]; ester 2-C) gave an EC50 at S. aureus ClpP (Sa-ClpP) of 390 ± 20 nM. Moreover, in series [1] (human, pH 7.4), the “Human” value was 4.68 ± 0.78 h.
The like results for `Cc1cc(C)cc(C[C@H](NC(=O)Nc2ccc(Cl)cc2F)C(=O)N[C@@H]2C(=O)N3CCC[C@H]3C(=O)N3CCCC[C@H]3C(=O)N[C@@H](C)C(=O)N3C[C@H](C)C[C@H]3C(=O)O[C@H]2C)c1` [Compound 4, (S)-2-(3-(4-CHLORO-2-FLUOROPHENYL)UREIDO)-3-(3,5-DIMETHYLPHENYL)-N-((2R,6S,8AS,14AS,20S,21S,23AS)-2,6,21-TRIMETHYL-5,8,14,19,23-PENTAOXOOCTADECAHYDRO-1H,5H,14H,19H-PYRIDO[2,1-I]DIPYRROLO[2,1-C:2′,1′-L][1]OXA[4,7,10,13]TETRAAZACYCLOHEXADECIN-20-YL)PROPANAMIDE] ({NH(4-Cl-2-F-phenyl)-CO}-[Phe(3,5-Me2)][aThr]P[Pip]A[Pro(4R-Me)]; ester 2-C) were, in that order, 430 ± 20 nM and 0.94 ± 0.09 h.
The corresponding values for `Cc1cccc(C[C@H](NC(=O)Nc2ccc(Cl)cc2F)C(=O)N[C@@H]2C(=O)N3CCC[C@H]3C(=O)N(C)C([C@@H](C)O)C(=O)N[C@@H](C)C(=O)N3C[C@H](C)C[C@H]3C(=O)O[C@H]2C)c1` (stereo partly drawn) [Compound 5] ({NH(4-Cl-2-F-phenyl)-CO}-[Phe(3-Me)][aThr]P[ξNMeThr]A[Pro(4R-Me)]; ester 2-C) are 320 ± 20 nM and 0.31 ± 0.03 h.
The like results for `Cc1cccc(C[C@H](NC(=O)Nc2ccc(Cl)cc2F)C(=O)N[C@@H]2C(=O)N3C[C@H](O)C[C@H]3C(=O)N3CCCC[C@H]3C(=O)N[C@@H](C)C(=O)N3C[C@H](C)C[C@H]3C(=O)O[C@H]2C)c1` [Compound 6, (S)-2-(3-(4-CHLORO-2-FLUOROPHENYL)UREIDO)-N-((2R,6S,8AS,14AS,16R,20S,21S,23AS)-16-HYDROXY-2,6,21-TRIMETHYL-5,8,14,19,23-PENTAOXOOCTADECAHYDRO-1H,5H,14H,19H-PYRIDO[2,1-I]DIPYRROLO[2,1-C:2′,1′-L][1]OXA[4,7,10,13]TETRAAZACYCLOHEXADECIN-20-YL)-3-(M-TOLYL)PROPANAMIDE] ({NH(4-Cl-2-F-phenyl)-CO}-[Phe(3-Me)][aThr][Hyp][Pip]A[Pro(4R-Me)]; ester 2-C) were, in that order, 230 ± 20 nM and 4.83 ± 1.5 h.
Take `Cc1cccc(C[C@H](NC(=O)Nc2ccc(Cl)cc2F)C(=O)N[C@H]2COC(=O)[C@@H]3C[C@@H](C)CN3C(=O)[C@H](C)NC(=O)[C@@H]3CCCCN3C(=O)[C@@H]3CCCN3C2=O)c1` [Compound 8, (S)-2-(3-(4-CHLORO-2-FLUOROPHENYL)UREIDO)-N-((2R,6S,8AS,14AS,20S,23AS)-2,6-DIMETHYL-5,8,14,19,23-PENTAOXOOCTADECAHYDRO-1H,5H,14H,19H-PYRIDO[2,1-I]DIPYRROLO[2,1-C:2′,1′-L][1]OXA[4,7,10,13]TETRAAZACYCLOHEXADECIN-20-YL)-3-(M-TOLYL)PROPANAMIDE]: the EC50 at S. aureus ClpP (Sa-ClpP) was 280 ± 20 nM. Also, in series [1] (human, pH 7.4), the “Human” value worked out at 0.89 ± 0.13 h.
`Cc1cccc(C[C@H](NC(=O)Nc2ccc(Cl)cc2F)C(=O)N[C@H]2COC(=O)[C@@H]3C[C@@H](C)CN3C(=O)[C@H](C)NC(=O)[C@@H]3CCCCN3C(=O)[C@@H]3C[C@@H](O)CN3C2=O)c1` [Compound 10] had a half-maximal effective concentration (EC50) at S. aureus ClpP (Sa-ClpP) of 380 ± 30 nM. The “Human” value in series [1] (human, pH 7.4) worked out at 0.29 ± 0.04 h.
The like results for `Cc1cccc(C[C@H](NC(=O)Nc2ccc(Cl)cc2F)C(=O)N[C@@H]2C(=O)N3CCC[C@H]3C(=O)N3CCN(C)C[C@H]3C(=O)N[C@@H](C)C(=O)N3C[C@H](C)C[C@H]3C(=O)O[C@H]2C)c1` [Compound 11, (S)-2-(3-(4-CHLORO-2-FLUOROPHENYL)UREIDO)-N-((6AS,12S,13S,15AS,17R,21S,23AS)-2,13,17,21-TETRAMETHYL-6,11,15,20,23-PENTAOXOOCTADECAHYDRO-2H,6H,11H,15H-PYRAZINO[2,1-I]DIPYRROLO[2,1-C:2′,1′-L][1]OXA[4,7,10,13]TETRAAZACYCLOHEXADECIN-12-YL)-3-(M-TOLYL)PROPANAMIDE] ({NH(4-Cl-2-F-phenyl)-CO}-[Phe(3-Me)][aThr]P[Piperazine(2S-CO,4-Me)]A[Pro(4R-Me)]; ester 2-C) were, in that order, 290 ± 10 nM and 0.91 ± 0.10 h.
The corresponding values for `Cc1cccc(C[C@H](NC(=O)Nc2ccc(Cl)cc2F)C(=O)N[C@H]2COC(=O)[C@@H]3C[C@@H](C)CN3C(=O)[C@H](C)NC(=O)[C@@H]3CCCCN3C(=O)[C@@H]3C[C@H](N)CN3C2=O)c1` [Compound 12, (S)—N-((2R,6S,8AS,14AS,16S,20S,23AS)-16-AMINO-2,6-DIMETHYL-5,8,14,19,23-PENTAOXOOCTADECAHYDRO-1H,5H,14H,19H-PYRIDO[2,1-I]DIPYRROLO[2,1-C:2′,1′-L][1]OXA[4,7,10,13]TETRAAZACYCLOHEXADECIN-20-YL)-2-(3-(4-CHLORO-2-FLUOROPHENYL)UREIDO)-3-(M-TOLYL)PROPANAMIDE] are 580 ± 20 nM and 3.34 ± 0.6 h.

(Values after patent publication US10570179B2, “Substituted urea depsipeptide analogs as activators of the CLPP endopeptidase” (priority 2016, dated 2020).)
